# Source: patent US20260325542A1, “CANCER TARGETING COMPLEX, AND COMPOSITION COMPRISING SAME FOR PREVENTING OR TREATING CANCER” (EWHA UNIVERSITY - INDUSTRY COLLABORATION FOUNDATION, priority 2023, published 2026)
# How the values were obtained:
# Format in all cases: in vivo, mouse
# [1] = Body weight and systemic side effects; details: 10 mg/kg, i.v., once every 3 days for 15 days
# Method: (§1) The control group was administered saline (10 mg/kg) once every 3 days for 15 days through the tail vein (total 4 administrations). The comparison group was administered ARV-771 (10 mg/kg) once every 3 days for 15 days through the tail vein (total 4 administrations). The example group was administered ECMal-PROTAC 10 mg/kg (wquiv. to ARV-771) of example 1 once every 3 days for 15 days through the tail vein (total 4 administrations).
# Tumor size and body weight were measured every two days for the control group, the comparison group, and the example group.
# liver tissue = assay: TUNEL analysis of liver tissue; details: excised after 15 days
# [2] = test system: organ tissue and cancer tissue; assay: H&E histology of major organs and cancer tissue; details: excised after 15 days
# Method: as §1
# The control group, the comparison group, and the example group were euthanized after 15 days, and major organs (heart, liver, lung, spleen, kidney) and cancer tissue were excised.
# Furthermore, to analyze cancer cell apoptosis, TUNEL (terminal deoxynucleotidyl transferase dUTP nick end labeling) analysis was performed on cancer tissue excised from the control group, the comparison group, and the example group. Next, histological analysis was performed by H&E (hematoxylin & eosin) staining of the major organ tissues and cancer tissue of each excised group.
# According to FIG. 29, major organ tissue and cancer tissue were excised from the control group, the comparison group, and the example group after 15 days. The excised organ tissue and cancer tissue were stained with H&E (hematoxylin & eosin). The H&E stained tissue was observed using a BX51 optical microscope (Olympus, Tokyo, Japan) and a TCS SP8 confocal laser microscope.
compound,measurement,setting,value
Cc1ncsc1-c1ccc([C@H](C)NC(=O)[C@@H]2C[C@@H](OC(=O)CCCCn3nnc4c3CCC3C(CC4)C3COC(=O)NCCOCCOCCNC(=O)CCN3C(=O)C=CC3=O)CN2C(=O)[C@@H](NC(=O)COCCCOCCNC(=O)C[C@@H]2N=C(c3ccc(Cl)cc3)c3c(sc(C)c3C)-n3c(C)nnc32)C(C)(C)C)cc1 (stereo partly drawn) [ECMal-PROTAC],systemic side effects,[1],did not show serious systemic side effects
same,weight loss,[1],no significant weight loss was observed
same,apoptosis rate in liver tissue vs control (TUNEL),liver tissue,no significant difference in the apoptosis rate
same,damage to the liver tissue,[2]; H&E,does not cause damage to the liver tissue
same,damage in cancer tissue (H&E),[2],strong damage
same,damage in organ tissue (H&E),"[2]; liver, lung, spleen, kidney, heart",No significant damage
